Experimental data reported in publication PMC6491728, “Application of in vitro Drug Metabolism Studies in Chemical Structure Optimization for the Treatment of Fibrodysplasia Ossificans Progressiva (FOP)” (Frontiers in Pharmacology, 2019).
Converted amounts (≈) assume the structure as drawn. Read-outs that look alike come from different tables or passages of the source.

Tests used:
[1] = target: T1, ALK2 (Mus musculus, UniProt P37172); assay: BMP6-stimulated SMAD1/5/8 phosphorylation in C2C12 cells (HTRF); format: cell-based; details: for IC50: C2C12 cells, SMAD1/5/8 phosphorylation, HTRF, read-out: BMP6 (mediated by ALK2) IC50
T1 construct: determined in C2C12 cell lines (ATCC; Manassas, VA, United States); host or cells: C2C12
T1 sequence (P37172 21-509): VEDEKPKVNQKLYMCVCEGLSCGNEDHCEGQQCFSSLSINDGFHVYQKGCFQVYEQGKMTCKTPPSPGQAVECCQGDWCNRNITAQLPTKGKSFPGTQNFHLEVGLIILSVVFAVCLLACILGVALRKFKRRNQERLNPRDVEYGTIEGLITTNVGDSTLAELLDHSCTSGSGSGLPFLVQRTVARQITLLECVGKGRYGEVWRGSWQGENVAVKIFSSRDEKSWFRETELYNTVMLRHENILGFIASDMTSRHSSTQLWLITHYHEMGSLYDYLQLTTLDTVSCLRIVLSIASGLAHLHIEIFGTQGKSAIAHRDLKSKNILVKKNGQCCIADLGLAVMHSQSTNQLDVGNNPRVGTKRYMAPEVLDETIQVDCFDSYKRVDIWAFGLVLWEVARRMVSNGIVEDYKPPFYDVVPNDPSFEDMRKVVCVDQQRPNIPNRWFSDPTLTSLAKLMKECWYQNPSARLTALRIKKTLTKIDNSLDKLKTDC
Description: (§1) The in vitro activity toward to ALK2 and the selectivity over ALK3 and ALK5 were determined in C2C12 cell lines (ATCC; Manassas, VA, United States) through measuring the phosphorylation level of SMAD1/5/8 (for ALK2 and ALK3) or SMAD2/3 (for ALK5) under the stimulation of BMP6 (mediated by ALK2), BMP4 (mediated by ALK3) and TGFβ (mediated by ALK5), respectively, by using homogeneous time resolved fluorescence (HTRF; a manuscript in preparation).

[2] = target: T2, ALK5 (Mus musculus, UniProt Q64729); assay: TGFβ-stimulated SMAD2/3 phosphorylation in C2C12 cells (HTRF); format: cell-based
T2 construct: determined in C2C12 cell lines (ATCC; Manassas, VA, United States); host or cells: C2C12
T2 sequence (Q64729 30-503): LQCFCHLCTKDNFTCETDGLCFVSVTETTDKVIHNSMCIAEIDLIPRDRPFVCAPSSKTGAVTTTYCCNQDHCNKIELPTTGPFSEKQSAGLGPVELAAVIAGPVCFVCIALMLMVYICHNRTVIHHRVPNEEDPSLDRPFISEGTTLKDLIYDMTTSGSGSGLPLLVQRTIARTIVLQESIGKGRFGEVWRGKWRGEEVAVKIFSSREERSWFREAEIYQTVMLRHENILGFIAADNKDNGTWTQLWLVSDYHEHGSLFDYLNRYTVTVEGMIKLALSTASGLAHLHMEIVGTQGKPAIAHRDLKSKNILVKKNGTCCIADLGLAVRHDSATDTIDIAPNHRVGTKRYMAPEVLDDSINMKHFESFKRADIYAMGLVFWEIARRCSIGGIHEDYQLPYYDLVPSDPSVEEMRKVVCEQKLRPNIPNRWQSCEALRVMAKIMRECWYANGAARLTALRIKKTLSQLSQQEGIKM
Description: as §1

[3] = In vitro metabolic stability screening assay with rat liver microsomes; format: in vitro ADME; details: rat liver microsomes 0.5 mg/mL, 1 μM compound, single time point 15 min, 37°C; read-out: Microsomal Stability t1/2
Description: In vitro metabolic stability screening assay was conducted with rat liver microsomes in a 96-well plate, where 1 μM of compound was incubated with 0.5 mg/mL of rat liver microsomal protein. A single time point was collected at 15 min after an incubation at 37°C. […] When the half-life was greater than 30 min, results were presented as >30 min.

[4] = Stirring double-sink PAMPA permeability; format: in vitro ADME; details: passive diffusion
Description: Parallel Artificial Membrane Permeability Assay (PAMPA) was employed to determine the passive diffusion permeability of LDN-193189 and analogs. Stirring double-sink PAMPA method (pION Inc.) was employed to determine the permeability of compounds. The method was performed as described previously ([Sun et al., 2017]).

[5] = Kinetic solubility (μSOL Evolution, pH 7.4 phosphate buffer); format: physicochemical; details: pH 7.4, aqueous buffer, kinetic from dmso stock
Description: Kinetic solubility was measured using the μSOL Evolution system from pION Inc. (Billerica, MA, United States). Saturation shake-flask solubility method was adapted as previously described ([Avdeef and Berger, 2001]). Briefly, 10 mM DMSO stock was diluted to a final drug concentration of 150 μM in the aqueous solution (pH 7.4, 100 mM phosphate buffer) in duplicates. The solution was kept at room temperature for 6 h for equilibration. After equilibration, precipitates were removed using Tecan Te-Vac vacuum-filter and the compound concentration was measured by UV absorbance (λ: 250–498 nm). Data was compared to a fully solubilized reference solution of the test article at 17 μM in spectroscopically pure n-propanol. The kinetic solubility (μg/mL) was calculated using the μSOL Evolution software.

[6] = Metabolite profiling in human liver microsomes and cytosol (LC/UV/MS, inhibitors, trapping)
[7] = target: T3, ALK3 (Mus musculus, UniProt P36895); assay: BMP4-stimulated SMAD1/5/8 phosphorylation in C2C12 cells (HTRF); format: cell-based; details: read-out: BMP4 (mediated by ALK3) IC50
T3 construct: determined in C2C12 cell lines (ATCC; Manassas, VA, United States); host or cells: C2C12
T3 sequence (P36895 24-532): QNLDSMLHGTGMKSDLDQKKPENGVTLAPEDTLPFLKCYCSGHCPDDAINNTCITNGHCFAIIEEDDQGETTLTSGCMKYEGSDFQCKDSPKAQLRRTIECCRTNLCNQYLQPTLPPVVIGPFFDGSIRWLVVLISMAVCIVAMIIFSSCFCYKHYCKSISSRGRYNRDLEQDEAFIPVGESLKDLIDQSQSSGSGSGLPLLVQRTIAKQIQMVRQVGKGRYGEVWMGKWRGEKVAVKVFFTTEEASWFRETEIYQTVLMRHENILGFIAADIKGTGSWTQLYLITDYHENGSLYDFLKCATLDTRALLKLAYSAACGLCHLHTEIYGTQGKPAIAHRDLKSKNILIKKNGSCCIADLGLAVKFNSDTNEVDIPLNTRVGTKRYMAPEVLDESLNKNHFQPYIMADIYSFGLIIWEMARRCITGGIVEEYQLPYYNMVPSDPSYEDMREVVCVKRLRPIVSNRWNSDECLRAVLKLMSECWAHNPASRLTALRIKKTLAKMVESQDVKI
Description: as §1

[8] = Metabolite formation in human and mouse liver subcellular fractions (LC/UV/MS, trapping); format: in vitro ADME; details: for cyanide (KCN) adduct: KCN trapping; for metabolism in cytosol incubation (AO-mediated): liver cytosol; for GSH adduct: microsomal incubation with NADPH and GSH, mouse and human; for Species in which the metabolite of Compound 2 was observed / Species in which the metabolite of Compound 3 was observed: H human, M mouse
[9] = Metabolite profiling of LDN-193189 in liver microsomal/cytosolic fractions of six species (LC/UV/MS, GSH and KCN trapping); details: for Species in which the metabolite of LDN-193189 was observed: LDN-193189 10 μM, 60 min, M mouse, R rat, Rb rabbit, D dog, Mo monkey, H human; for metabolite found in rat microsomal incubation with LDN-193189: rat liver microsomes
Description: Total incubation volume per sample was 1 mL. The metabolic reactions were initiated by the addition of cofactors, NADPH-regenerating system and UDPGA, after a pre-incubation at 37°C for 5 min. The incubation mixtures were placed in a shaking water bath at 37°C for 60 min. At the end of the reaction, three volumes of ACN were added, followed by vortexing and centrifugation to remove proteins. The supernatants were transferred to clean tubes and dried completely under a stream of nitrogen at ambient temperature. The dried residues were reconstituted with 500 μL of 25% MeOH in water and transferred into HPLC vials for LC/UV/MS analysis.
Chromatography was accomplished on a Phenomenex Luna, C18 (2) column, 3.0 × 250 mm, 5 μm (Torrance, CA, United States). The column was kept at ambient temperature during sample analysis. The mobile phases were HPLC grade water (solvent A) and ACN (solvent B), both of which contained 0.1% trifluoroacetic acid (TFA). […] The first 4 min of the HPLC flow was diverted to waste prior to evaluation of metabolites.
To facilitate distinction of carbon or heteroatom oxidations, hydrogen/deuterium (H/D) exchange experiments were performed by replacing the aqueous mobile phase (H2O) with D2O while keeping the rest of assay conditions unchanged.
UV absorption spectra from 200 to 400 nm were recorded using a diode array detector. The Thermo Finnigan LTQ XL mass spectrometer was equipped with an electrospray ionization (ESI) interface and operated in positive ionization mode for metabolite profiling and identification. Mass spectra were acquired in full scan (MS) (m/z 200–1000) and data dependent scan (MS^2, MS^3, and MS^4) modes. The ESI spray voltage was +5kV with capillary temperature of 300°C. Sheath gas and auxiliary gas were 80 and 20 arbitrary units, respectively. Activation Q was 0.25 and Activation time 30 ms. The collision energy used to obtain fragments was set at 40 eV.

[10] = parameters: method as in Cuny et al., 2008; details: mice, intraperitoneal administration; ref Cuny et al., 2008; cited from earlier work
[11] = tested on: mouse FOP disease model; parameters: method as in Yu et al., 2008a; details: ref Yu et al., 2008a; cited from earlier work
[12] = C2C12 cells, SMAD2/3 phosphorylation, HTRF, read-out: TGFβ (mediated by ALK5) IC50

Cc1cc(-c2cnn3cc(-c4ccc(N5CCNCC5)cc4)cnc23)c2ccccc2n1 [Compound 1]
IC50 [1]: 120 nM | IC50 [2]: 987 nM | half-life at 1 μM [3]: > 30 min | Papp [4]: 437 ×10⁻⁶ cm/s | solubility at 6 h [5]: 1 µg/mL (≈ 2.38 µM) | glucuronide conjugate ([6]; UDPGA-fortified human liver microsomes): No glucuronide conjugate was observed | metabolism in cytosol incubation (AO-mediated) ([6]; human liver cytosol): No metabolism was observed | extent of metabolism in human liver microsomes ([6]; human liver microsomes): metabolized moderately | GSH adduct in trapping experiments ([6]; human liver microsomes, GSH): no GSH or cyanide adduct was detected | cyanide adduct in trapping experiments ([6]; human liver microsomes, KCN): no GSH or cyanide adduct was detected | aniline derivatives ([6]; human microsomal fractions): No aniline derivatives were observed

c1ccc2c(-c3cnn4cc(-c5ccc(OCCN6CCCCC6)nc5)cnc34)ccnc2c1 [Compound 2]
IC50 [1]: 227 nM | IC50 [7]: 3270 nM | IC50 [2, 12]: 27400 nM | half-life at 1 μM [3]: 22 min | Papp [4]: 7 ×10⁻⁶ cm/s | solubility at 6 h [5]: < 1 µg/mL | aniline formation [8]: not detected | cyanide (KCN) adduct [8]: not detected | metabolism in cytosol incubation (AO-mediated) [8]: An oxidative metabolite was observed | GSH adduct [8]: observed only in mouse microsomal incubation

Cc1cc(-c2cnn3cc(-c4ccc(OCCN5CCCCC5)nc4)cnc23)c2ccccc2n1 [Compound 3]
IC50 [1]: 466 nM | potency against ALK2 mediated signaling compared to LDN-193189 ([1]; relative to LDN-193189): threefold less potent | IC50 [7]: 4340 nM | IC50 [2, 12]: 2660 nM | half-life at 1 μM [3]: > 30 min | Papp [4]: 1070 ×10⁻⁶ cm/s | solubility at 6 h [5]: 36.2 µg/mL (≈ 77.9 µM) | aniline formation [8]: Neither aniline formation nor cytosolic metabolism were observed | cyanide (KCN) adduct [8]: No cyanide adduct or glucuronide conjugate was observed | glucuronide conjugate ([8]; UDPGA): No cyanide adduct or glucuronide conjugate was observed | metabolism in cytosol incubation (AO-mediated) [8]: No metabolite formation was observed | GSH adduct [8]: observed only in mouse microsomal incubation

Nc1ccc(-c2cnc3c(-c4ccnc5ccccc45)cnn3c2)cc1 [Compound M337]
Species in which the metabolite of LDN-193189 was observed [9]: M, Rb, D, Mo, H | metabolite found in rat microsomal incubation with LDN-193189 [9]: not found

NCCNc1ccc(-c2cnc3c(-c4ccnc5ccccc45)cnn3c2)cc1 [Compound M380]
metabolite found in rat microsomal incubation with LDN-193189 [9]: not found

OCCNc1ccc(-c2cnc3c(-c4ccnc5ccccc45)cnn3c2)cc1 [Compound M381]
Species in which the metabolite of LDN-193189 was observed [9]: Rb, D, Mo, H

O=C(O)CNc1ccc(-c2cnc3c(-c4ccnc5ccccc45)cnn3c2)cc1 [Compound M395]
Species in which the metabolite of LDN-193189 was observed [9]: Rb, D, Mo, H

Cc1cc(-c2cnn3cc(-c4ccc(OCCO)nc4)cnc23)c2ccccc2n1 [Compound M397]
Species in which the metabolite of Compound 2 was observed [8]: H, M | Species in which the metabolite of Compound 3 was observed [8]: H, M

Cc1cc(-c2cnn3cc(-c4ccc(OCC(=O)O)nc4)cnc23)c2ccccc2n1 [Compound M411]
Species in which the metabolite of Compound 3 was observed [8]: H, M

O=C1CN(c2ccc(-c3cnc4c(-c5ccnc6ccccc56)cnn4c3)cc2)CCN1 [Compound M420]
Species in which the metabolite of LDN-193189 was observed [9]: M, R, Rb, D, Mo, H

Oc1cc(-c2cnn3cc(-c4ccc(N5CCNCC5)cc4)cnc23)c2ccccc2n1 [Compound M422c]
Species in which the metabolite of LDN-193189 was observed [9]: all species except dog

N#CC1CNCCN1c1ccc(-c2cnc3c(-c4ccnc5ccccc45)cnn3c2)cc1 (stereo not shown) [Compound M431]
Species in which the metabolite of LDN-193189 was observed [9]: M, R, Rb, D, Mo, H

NCCN(CC(=O)O)c1ccc(-c2cnc3c(-c4ccnc5ccccc45)cnn3c2)cc1 [Compound M438]
Species in which the metabolite of LDN-193189 was observed [9]: M, R, Rb, D, Mo, H

N#CC1CNC(=O)CN1c1ccc(-c2cnc3c(-c4ccnc5ccccc45)cnn3c2)cc1 (stereo not shown) [Compound M445]
Species in which the metabolite of LDN-193189 was observed [9]: M, R, Rb, D, Mo, H

O=c1cc(-c2cnn3cc(-c4ccc(OCCN5CCCCC5)nc4)cnc23)c2ccccc2[nH]1 [Compound M466d]
Species in which the metabolite of Compound 2 was observed [8]: H, M

c1ccc2c(-c3cnn4cc(-c5ccc(N6CCNCC6)cc5)cnc34)ccnc2c1 [LDN-193189, reference compound]
IC50 [7]: 585 nM | half-life at 1 μM [3]: > 30 min | Papp [4]: 320 ×10⁻⁶ cm/s | solubility at 6 h [5]: 1.1 µg/mL (≈ 2.71 µM) | plasma t1/2 [10]: 96 min | efficacy in an animal model of FOP [11]: efficacious | formation of M422c on addition of XO inhibitor allopurinol ([6]; human liver cytosol, allopurinol 0.1 mM): did not result in a change | formation of M422c in the presence of AO inhibitor menadione ([6]; human liver cytosol, menadione 1 mM): reduced | glucuronide conjugates ([9]; UDPGA 2 mM): no glucuronide conjugates observed | GSH trapping of reactive metabolites ([9]; liver microsomes from any species, GSH 2 mM): no “soft electrophiles” were produced | rank ordering of the metabolic conversion in liver microsomes ([9]; liver microsomes, no cytosol added): dog > rabbit > mouse > human ∼ monkey > rat | extent of metabolic conversion to M422c, order of species ([9]; liver preparations with cytosol): monkey > rabbit > human > mouse > rat with no conversion observed in dog liver preparations

CN1CCC[C@H]1c1cccnc1 [Nicotine, reference compound]
cyanide adducts in KCN trapping ([9]; liver microsomes, KCN 0.1 mM): produced the expected cyanide derivatives

C[C@]12CC[C@H]3[C@@H](CCC4=CC(=O)CC[C@@]43C)[C@@H]1CC[C@@H]2O [testosterone, reference compound]
metabolite formation of positive control ([6]; human liver microsomes, 100 μM, 20 min): showed the expected metabolite formation
